The text below walks through data of PMC10049354, “Anti-Inflammatory Effects and Photo- and Neuro-Protective Properties of BIO203, a New Amide Conjugate of Norbixin, in Development for the Treatment of Age-Related Macular Degeneration (AMD)” (International Journal of Molecular Sciences, 2023).

One test concerns PPAR. Briefly: PPAR transactivation assay (Cignal reporter, luciferase) induced by A2E. The test is classed as cell-based, pig. The following applies: compound 20 μM; A2E 20 μM; RPE cells. The protocol: (§1) Transactivation assays were performed as previously described. Briefly, RPE cells were plated in DMEM 2% FCS at a density of 6 × 10^4 cells/cm^2. The next day transfections using the Cignal Reporter Assay Kits for PPAR, RXR, AP-1, and NF-κB were performed with Lipofectamine and Plus Reagent in serum-free medium. Three hours after the transfection, A2E and/or BIO203, both at 20 μM, were added to the culture medium for 24 h. Luciferase activity was measured using the Dual-Luciferase Reporter Assay System and with a luminometer (Infinite M1000 from Tecan, Mannedorf, Switzerland). At least 3 independent transfections were performed in triplicate for each condition.

Test [1] has as its system IL-8. Briefly: IL-8 mRNA expression induced by A2E (quantitative RT-PCR). The following applies: BIO203 20 mM (so in the source); A2E 20 μM; porcine RPE cells; p < 0.001. In kind it is cell-based, pig. The method, then: RPE cells were obtained from pig eyes, as previously described. RPE cells were seeded on a 96-well plate at a density of 1.5 × 10^5 cells/cm^2 in DMEM 2% FCS. BIO201, BIO203, or its pure enantiomers were added in increasing concentrations to the culture medium 48 h before illumination. A2E was added to the medium at a final concentration of 30 μM, and 19 h later, blue-light illumination was performed for 50 min using a 96 blue-led device (Durand, St Clair de la Tour, France) emitting at 470 nm (1440 mcd, 8.6 mA). Just before illumination, the culture medium was replaced by a modified DMEM without any photosensitizer and with 2% FCS. Twenty-four hours after blue-light irradiation, all cell nuclei were stained with Hoechst 33342, and nuclei of dead cells with ethidium homodimer 2, fixed with paraformaldehyde (4% in PBS, 10 min) and 9 pictures per well were captured using a fluorescence microscope (Nikon TiE) equipped with a CoolSNAP HQ2 camera and driven by Metamorph Premier On-Line program. Quantification of live cells was performed using Metamorph Premier Off-Line and a homemade program by subtraction of dead cells from all cells. For cytokines mRNA analysis, RPE cells were seeded in 24-well plates and left untreated or treated with A2E or BIO203 alone or A2E plus BIO203. […]

For the next test, the system named is Abca4−/− Rdh8−/− mice. Briefly: A2E quantification in eyes of Abca4−/− Rdh8−/− mice (HPLC-MS/MS). In kind it is in vivo, mouse. The settings on record: 6 months. From the text:
To test the preventive/curative action of oral administration of BIO203 against retinal neurodegeneration, a total of 27 Pigmented Abca4^−/− Rdh8^−/− mice carrying the Rpe65-Leu450 mutation and the rd8 mutation in the Crb1 gene from Case Western Reserve University of eleven to twelve months of age were used. Three groups of 9 males received control chow (Teklad Custom Research Diet 2016© pellets) or chow containing LD-BIO203 or HD-BIO203 orally for 6 months. After 6 months of complementation, ERG was measured in both eyes. In the control group, two mice died during the period of complementation and one mouse during ERG measurement. In the HD-BIO203 group, one mouse died before the end of complementation, and 3 mice died just after anesthesia. All the mice that received LD-BIO203 were alive until the end of the complementation. One of them died during the photopic ERG measurement. Blood was collected by submandibular puncture in all mice before being euthanized. In each group, half of the eyes were removed for A2E and BIO203 measurements, and half of the eyes were used for histological analyses and photoreceptor layer quantification.
A2E quantification in eyes was performed using the HPLC-MS/MS method, which has been described previously.

In a further test the test system is AP-1. Briefly: AP-1 transactivation assay induced by A2E. The test is classed as cell-based, pig. The following applies: compound 20 μM; A2E 20 μM. The method, then: as §1
Test [2] relates to albino rats exposed to blue-light-induced photoreceptor degeneration. Also on record: method as in PMID 27992460. The following applies: IP; cited from earlier work.
Test [3] deals with IL-8. Also on record: method as in PMID 34544906. The following applies: norbixin at 20 mM (so in the source); cited from earlier work.
The test system of a further test is RXR. Also noted: method as in PMID 34544906. The settings on record: porcine RPE cells in vitro; cited from earlier work.
In another test the test system is NF-κB. Also noted: method as in PMID 34544906. The following applies: cited from earlier work.

Take `COC1CCCN(C(=O)/C=C/C(C)=C/C=C/C(C)=C/C=C/C=C(C)/C=C/C=C(C)\C=C\C(=O)O)C1` (stereo not drawn) [BIO203]: in the test on PPAR, the “inhibition of PPAR transactivation induced by A2E” value was “entirely inhibits”. The “change of IL-8 mRNA expression induced by A2E” value in the test with IL-8 [1] is on record as −86.8%. Moreover, the “change of A2E concentration in the retinas compared with control pellets” value in the test with Abca4−/− Rdh8−/− mice (HD pellets, not significant, p = 0.407) is −21.7%. For the same molecule, the “amount of ocular A2E compared with control pellets” value with Abca4−/− Rdh8−/− mice (LD pellets) was “did not differ significantly”. For the same molecule, in the test on AP-1, the “inhibition of AP1 transactivation induced by A2E” value is reported as “inhibited”.
As for `CC(=C/C=C/C(C)=C/C=C/C=C(C)/C=C/C=C(C)/C=C/C(=O)O)/C=C/C(=O)O` [norbixin, 9′-cis-norbixin], the “lowest dose giving the maximal retinal neuroprotection and optimal preservation of visual functions” value in test [2] was 50 mg/kg. Further, the “effect on IL-8 mRNA expression” value in the test with IL-8 [3] was “significantly reduced”. For the same molecule, in the test with RXR, the “inhibition of RXR transactivation induced by A2E” value is on record as “significantly inhibited”. In the test on NF-κB, the “change of NF-κB transactivation induced by A2E” value is given as −73%.
